In patent US7956074B2, “Aryl-isoxazolo-4-yl-oxadiazole derivatives” (Hoffman-La Roche Inc., priority 2005, dated 2011):

Target: T1, GABA A receptor α5β3γ2 (Homo sapiens, UniProt P18507+P31644)
T1 construct: expressed in transfected cells; host or cells: HEK293 cells, transiently transfected; membranes prepared
Test: [3H]flumazenil competition binding, human GABA A α5β3γ2
Settings: competition for [3H]flumazenil (0.5 nM) binding, HEK293 cells expressing human (transiently transfected) α5β3γ2; means of two determinations; read-out: Ki[nM] hα5
Method: Membrane Preparation and Binding Assay
The affinity of compounds at GABA A receptor subtypes was measured by competition for [3H]flumazenil (85 Ci/mmol; Roche) binding to HEK293 cells expressing rat (stably transfected) or human (transiently transfected) receptors of composition
Cell pellets were suspended in Krebs-tris buffer (4.8 mM KCl, 1.2 mM CaCl2, 1.2 mM MgCl2, 120 mM NaCl, 15 mM Tris; pH 7.5; binding assay buffer), homogenized by polytron for ca. 20 sec on ice and centrifuged for 60 min at 4° C. (50000 g; Sorvall, rotor: SM24=20000 rpm). The cell pellets were resuspended in Krebs-tris buffer and homogenized by polytron for ca. 15 sec on ice. Protein was measured (Bradford method, Bio-Rad) and aliquots of 1 mL were prepared and stored at −80° C.
Assays were incubated to equilibrium for 1 hour at 4° C. and harvested onto GF/C uni-filters (Packard) by filtration using a Packard harvester and washing with ice-cold wash buffer (50 mM Tris; pH 7.5). After drying, filter-retained radioactivity was detected by liquid scintillation counting. Ki values were calculated using Excel-Fit (Microsoft) and are the means of two determinations.

Compound	Ki
2-(4,5-Difluoro-2-methoxy-phenyl)-5-(5-methyl-3-phenyl-isoxazol-4-yl)-[1,3,4]oxadiazole [Example 87]	43.8 nM
Cc1onc(-c2ccccc2)c1-c1nnc(-c2ccccc2)o1 [Example 1, 2-(5-Methyl-3-phenyl-isoxazol-4-yl)-5-phenyl-[1,3,4]oxadiazole]	400 nM
Cc1ccccc1-c1nnc(-c2c(-c3ccccc3)noc2C)o1 [Example 2, 2-(5-Methyl-3-phenyl-isoxazol-4-yl)-5-o-tolyl-[1,3,4]oxadiazole]	234 nM
COc1cccc(-c2nnc(-c3c(-c4ccccc4)noc3C)o2)c1 [Example 3, 2-(3-Methoxy-phenyl)-5-(5-methyl-3-phenyl-isoxazol-4-yl)-[1,3,4]oxadiazole]	391 nM
COc1ccc(-c2nnc(-c3c(-c4ccccc4)noc3C)o2)cc1 [Example 5, 2-(4-Methoxy-phenyl)-5-(5-methyl-3-phenyl-isoxazol-4-yl)-[1,3,4]oxadiazole]	31.1 nM
Cc1onc(-c2ccccc2)c1-c1nnc(-c2cccnc2Cl)o1 [Example 6, 2-Chloro-3-[5-(5-methyl-3-phenyl-isoxazol-4-yl)-[1,3,4]oxadiazol-2-yl]-pyridine]	146 nM
Cc1onc(-c2ccccc2)c1-c1nnc(-c2cccc3cccnc23)o1 [Example 7, 8-[5-(5-Methyl-3-phenyl-isoxazol-4-yl)-[1,3,4]oxadiazol-2-yl]-quinoline]	40.6 nM
CCOc1ccccc1-c1nnc(-c2c(-c3ccccc3)noc2C)o1 [Example 8, 2-(2-Ethoxy-phenyl)-5-(5-methyl-3-phenyl-isoxazol-4-yl)-[1,3,4]oxadiazole]	58.2 nM
Cc1onc(-c2ccccc2)c1-c1nnc(-c2ccccn2)o1 [Example 9, 2-[5-(5-Methyl-3-phenyl-isoxazol-4-yl)-[1,3,4]oxadiazol-2-yl]-pyridine]	286 nM
COc1ccc(-c2nnc(-c3c(-c4ccccc4)noc3C)o2)c(OC)c1 [Example 10, 2-(2,4-Dimethoxy-phenyl)-5-(5-methyl-3-phenyl-isoxazol-4-yl)-[1,3,4]oxadiazole]	31.7 nM
COc1cc([N+](=O)[O-])ccc1-c1nnc(-c2c(-c3ccccc3)noc2C)o1 [Example 11, 2-(2-Methoxy-4-nitro-phenyl)-5-(5-methyl-3-phenyl-isoxazol-4-yl)-[1,3,4]oxadiazole]	171 nM
Cc1onc(-c2ccccc2)c1-c1nnc(-c2ccccc2N)o1 [Example 12, 2-[5-(5-Methyl-3-phenyl-isoxazol-4-yl)-[1,3,4]oxadiazol-2-yl]-phenylamine]	106 nM
COc1cc(C)ccc1-c1nnc(-c2c(-c3ccccc3)noc2C)o1 [Example 14, 2-(2-Methoxy-4-methyl-phenyl)-5-(5-methyl-3-phenyl-isoxazol-4-yl)-[1,3,4]oxadiazole]	31 nM
COc1cc(N(C)C(=O)C2CC2)ccc1-c1nnc(-c2c(-c3ccccc3)noc2C)o1 [Example 17, Cyclopropanecarboxylic acid {3-methoxy-4-[5-(5-methyl-3-phenyl-isoxazol-4-yl)-[1,3,4]oxadiazol-2-yl]-phenyl}-methyl-amide]	48.8 nM
COc1cc(NCC2CC2)ccc1-c1nnc(-c2c(-c3ccccc3)noc2CCC2CC2)o1 [Example 18, (4-{5-[5-(2-Cyclopropyl-ethyl)-3-phenyl-isoxazol-4-yl]-[1,3,4]oxadiazol-2-yl}-3-methoxy-phenyl)-cyclopropylmethyl-amine]	124 nM
COc1cc(N(S(C)(=O)=O)S(C)(=O)=O)ccc1-c1nnc(-c2c(-c3ccccc3)noc2C)o1 [Example 21, N-{3-Methoxy-4-[5-(5-methyl-3-phenyl-isoxazol-4-yl)-[1,3,4]oxadiazol-2-yl]-phenyl}-bis-methanesulfonyl-amine]	85 nM
COc1cc(F)ccc1-c1nnc(-c2c(-c3ccccc3)noc2C)o1 [Example 24, 2-(4-Fluoro-2-methoxy-phenyl)-5-(5-methyl-3-phenyl-isoxazol-4-yl)-[1,3,4]oxadiazole]	39.6 nM
Cc1onc(-c2ccccc2)c1-c1nnc(-c2ccc3nn[nH]c3c2)o1 [Example 25, 6-[5-(5-Methyl-3-phenyl-isoxazol-4-yl)-[1,3,4]oxadiazol-2-yl]-1H-benzotriazole]	30.9 nM

Compounds with a lower Ki, results first:

Ki	Compound
10.5 nM	COc1cc(NCC2CCCO2)c(F)cc1-c1nnc(-c2c(-c3ccccc3)noc2C)o1 (racemic) [Example 130, rac-{2-Fluoro-5-methoxy-4-[5-(5-methyl-3-phenyl-isoxazol-4-yl)-[1,3,4]oxadiazol-2-yl]-phenyl}-(tetrahydro-furan-2-ylmethyl)-amine]
16.4 nM	COc1ccccc1-c1nnc(-c2c(-c3ccccc3)noc2C)o1 [Example 4, 2-(2-Methoxy-phenyl)-5-(5-methyl-3-phenyl-isoxazol-4-yl)-[1,3,4]oxadiazole]
7.5 nM	COc1cc(N)ccc1-c1nnc(-c2c(-c3ccccc3)noc2C)o1 [Example 13, 3-Methoxy-4-[5-(5-methyl-3-phenyl-isoxazol-4-yl)-[1,3,4]oxadiazol-2-yl]-phenylamine]
14.8 nM	COc1ccc(OC)c(-c2nnc(-c3c(-c4ccccc4)noc3C)o2)c1 [Example 15, 2-(2,5-Dimethoxy-phenyl)-5-(5-methyl-3-phenyl-isoxazol-4-yl)-[1,3,4]oxadiazole]
7.7 nM	COc1cc(NC(=O)C2CC2)ccc1-c1nnc(-c2c(-c3ccccc3)noc2C)o1 [Example 16, Cyclopropanecarboxylic acid {3-methoxy-4-[5-(5-methyl-3-phenyl-isoxazol-4-yl)-[1,3,4]oxadiazol-2-yl]-phenyl}-amide]
11.6 nM	COc1cc(NCC2CC2)ccc1-c1nnc(-c2c(-c3ccccc3)noc2C)o1 [Example 19, Cyclopropylmethyl-{3-methoxy-4-[5-(5-methyl-3-phenyl-isoxazol-4-yl)-[1,3,4]oxadiazol-2-yl]-phenyl}-amine]
20.5 nM	COc1cc(N)ccc1-c1nnc(-c2c(-c3ccccc3)noc2CCC2CC2)o1 [Example 20, 4-{5-[5-(2-Cyclopropyl-ethyl)-3-phenyl-isoxazol-4-yl]-[1,3,4]oxadiazol-2-yl}-3-methoxy-phenylamine]
18.3 nM	COc1cc(NC(=O)c2ccsc2)ccc1-c1nnc(-c2c(-c3ccccc3)noc2C)o1 [Example 23, Thiophene-3-carboxylic acid-{3-methoxy-4-[5-(5-methyl-3-phenyl-isoxazol-4-yl)-[1,3,4]oxadiazol-2-yl]-phenyl}-amide]
10.2 nM	COc1cc(N2CCSCC2)ccc1-c1nnc(-c2c(-c3ccccc3)noc2C)o1 [Example 26, 4-{3-Methoxy-4-[5-(5-methyl-3-phenyl-isoxazol-4-yl)-[1,3,4]oxadiazol-2-yl]-phenyl}-thiomorpholine]
22.1 nM	Cc1onc(-c2ccccc2)c1-c1nnc(-c2ccc3[nH]cnc3c2)o1 [Example 27, 5-[5-(5-Methyl-3-phenyl-isoxazol-4-yl)-[1,3,4]oxadiazol-2-yl]-1H-benzoimidazole]
3.2 nM	COc1cc(N2CCS(=O)(=O)CC2)ccc1-c1nnc(-c2c(-c3ccccc3)noc2C)o1 [Example 28, 4-{3-Methoxy-4-[5-(5-methyl-3-phenyl-isoxazol-4-yl)-[1,3,4]oxadiazol-2-yl]-phenyl}-thiomorpholine 1,1-dioxide]
6 nM	COc1cc(N2CCC(O)CC2)ccc1-c1nnc(-c2c(-c3ccccc3)noc2C)o1 [Example 29, 1-{3-Methoxy-4-[5-(5-methyl-3-phenyl-isoxazol-4-yl)-[1,3,4]oxadiazol-2-yl]-phenyl}-piperidin-4-ol]
